Experimental data published in patent publication US11000033B2, “Ketone or oxime compound, and herbicide” (NISSAN CHEMICAL CORPORATION, priority 2014, dated 2021).

Tests used:
Format in all cases: in vivo
Apera spica-venti [1] = assay: Test Example 4: herbicidal effect by soil treatment (symbol L); conditions: application herbicide amount 320 g/ha
Method in brief: (§1)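 Seeds were sown in sterilized diluvial soil, covered with about 1.5 cm of soil, and the soil surface was sprayed with a water-diluted emulsion of the compound at a predetermined rate. Plants grew in a greenhouse at 25° C. to 30° C.; effects were scored visually 3 weeks after application.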

Monochoria vaginalis [2] = assay: Test Example 1: herbicidal activity, application before weed generation in submerged conditions (symbol C); conditions: application herbicide amount 320 g/ha
Method in brief: (§2)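 Mixed weed seeds sown in alluvial soil under 4 cm of water, with rice seedlings at the 2.5-leaf stage added. Same-day treatment: emulsion diluted to a set herbicide amount onto the water. Three weeks at 25–30 °C, then graded on a six-step scale.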

Monochoria vaginalis [3] = assay: Test Example 2: herbicidal activity, application during weed generation in submerged conditions (symbol C); conditions: Table 23; application herbicide amount 320 g/ha; grade 0-5 by criteria of Test Example 1
Method in brief: (§3)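 Seeds sown in flooded alluvial soil (4 cm water) were grown in a 25-30° C greenhouse. At the one- to two-leaf stage, diluted emulsion of compound was applied to the water surface at a predetermined rate. Effect was scored 3 weeks later.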

rapeseed [4] = assay: Test Example 4: effect on crop by soil treatment (symbol g); conditions: application herbicide amount 320 g/ha
Method in brief: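 Sterilized diluvial soil, spot sowing, ~1.5 cm soil cover; greenhouse 25–30° C.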

[5] = system: Echinochloa crus-galli var. crus-galli; assay: Test Example 4: herbicidal effect by soil treatment (symbol H); conditions: application herbicide amount 320 g/ha
Method in brief: as §1

Lolium multiflorum Lam. = assay: Test Example 5: herbicidal effect by foliage application, plastic box (symbol K); conditions: 320 g/ha, 3 weeks after application
Method in brief: (§4)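 Post-emergence spray; diluvial soil (sterilized), ~1.5 cm seed cover; greenhouse 25–30° C; 14-day-old plants; water-diluted emulsion at predetermined dose; visual score at 3 wk post-treatment.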

Digitaria ciliaris = assay: Test Example 4: herbicidal effect by soil treatment (symbol F); conditions: application herbicide amount 320 g/ha
Method in brief: as §1

Apera spica-venti [6] = assay: Test Example 5: herbicidal effect by foliage application, plastic box (symbol L); conditions: 320 g/ha, 3 weeks after application
Method in brief: as §4

Amaranthus retroflexus = assay: Test Example 5: herbicidal effect by foliage application, plastic box (symbol N); conditions: 320 g/ha, 3 weeks after application
Method in brief: as §4

Veronica persica = assay: Test Example 5: herbicidal effect by foliage application, plastic box (symbol R); conditions: 320 g/ha, 3 weeks after application
Method in brief: as §4

rapeseed [7] = assay: Test Example 5: effect on crop by foliage application, plastic box (symbol g); conditions: 320 g/ha, 3 weeks after application
Method in brief: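 Crop and weed seeds sown in spots in sterilized diluvial soil in plastic boxes and covered with about 1.5 cm soil. Plants raised in a greenhouse at 25° C. to 30° C. for foliar application.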

Setaria viridis = assay: Test Example 5: herbicidal effect by foliage application, plastic box (symbol G); conditions: 320 g/ha, 3 weeks after application
Method in brief: as §4

Scirpus juncoides [8] = assay: Test Example 1: herbicidal activity, application before weed generation in submerged conditions (symbol B); conditions: application herbicide amount 320 g/ha
Method in brief: as §2

Scirpus juncoides [9] = assay: Test Example 2: herbicidal activity, application during weed generation in submerged conditions (symbol B); conditions: Table 23; application herbicide amount 320 g/ha; grade 0-5 by criteria of Test Example 1
Method in brief: as §3

Compound	L: Apera spica-venti, herbicidal effect grade (Apera spica-venti [1])	Herbicidal effect grade, C: Monochoria vaginalis (Monochoria vaginalis [2])	Herbicidal effect grade, C: Monochoria vaginalis (Monochoria vaginalis [3])	g: rapeseed, effect on crop grade (rapeseed [4])	H: Echinochloa crus-galli var. crus-galli, herbicidal effect grade [5]	K: Lolium multiflorum Lam., herbicidal effect (criteria of Test Example 1) (Lolium multiflorum Lam.)	F: Digitaria ciliaris, herbicidal effect grade (Digitaria ciliaris)	L: Apera spica-venti, herbicidal effect (criteria of Test Example 1) (Apera spica-venti [6])	N: Amaranthus retroflexus, herbicidal effect (criteria of Test Example 1) (Amaranthus retroflexus)	R: Veronica persica, herbicidal effect (criteria of Test Example 1) (Veronica persica)	g: rapeseed, effect on crop (criteria of Test Example 1) (rapeseed [7])	G: Setaria viridis, herbicidal effect (criteria of Test Example 1) (Setaria viridis)	Herbicidal effect grade, B: Scirpus juncoides (Scirpus juncoides [8])	Herbicidal effect grade, B: Scirpus juncoides (Scirpus juncoides [9])	other results
CON=C(C)CC1CC(OC(=O)N2CCOCC2)=C(c2c(C)cc(-c3ccc(Cl)cc3)cc2C)C1=O (mixture of isomers) [6-062]	5 (Herbicidal ratio of 90% or more (almost completely withered))	4 (Herbicidal ratio of 70% or higher and lower than 90%)	3 (Herbicidal ratio of 40% or higher and lower than 70%)	0 (Herbicidal ratio of 5% or lower (almost no effect))	5 (Herbicidal ratio of 90% or more (almost completely withered))	4 (Herbicidal ratio of 70% or higher and lower than 90%)	3 (Herbicidal ratio of 40% or higher and lower than 70%)	5 (Herbicidal ratio of 90% or more (almost completely withered))	1 (Herbicidal ratio of 5% or higher and lower than 20%)	5 (Herbicidal ratio of 90% or more (almost completely withered))	4 (Herbicidal ratio of 70% or higher and lower than 90%)	5 (Herbicidal ratio of 90% or more (almost completely withered))	4 (Herbicidal ratio of 70% or higher and lower than 90%)	3 (Herbicidal ratio of 40% or higher and lower than 70%)	
COC(=O)CON=C(C)CC1CC(O)=C(c2c(C)cc(C)cc2C)C1=O (stereo not drawn) [1-023]		0 (Herbicidal ratio of 5% or lower (almost no effect))	0 (Herbicidal ratio of 5% or lower (almost no effect))										0 (Herbicidal ratio of 5% or lower (almost no effect))	0 (Herbicidal ratio of 5% or lower (almost no effect))	L (Apera spica-venti) herbicidal effect grade (Apera spica-venti [1]): 4 (Herbicidal ratio of 70% or higher and lower than 90%); g (rapeseed) effect on crop grade (rapeseed [4]): 0 (Herbicidal ratio of 5% or lower (almost no effect)); H (Echinochloa crus-galli var. crus-galli) herbicidal effect grade [5]: 3 (Herbicidal ratio of 40% or higher and lower than 70%); K: Lolium multiflorum Lam., herbicidal effect grade (Lolium multiflorum Lam.): 4 (Herbicidal ratio of 70% or higher and lower than 90%); F (Digitaria ciliaris) herbicidal effect grade (Digitaria ciliaris): 4 (Herbicidal ratio of 70% or higher and lower than 90%); L: Apera spica-venti, herbicidal effect grade (Apera spica-venti [6]): 4 (Herbicidal ratio of 70% or higher and lower than 90%); N: Amaranthus retroflexus, herbicidal effect grade (Amaranthus retroflexus): 0 (Herbicidal ratio of 5% or lower (almost no effect)); R: Veronica persica, herbicidal effect grade (Veronica persica): 0 (Herbicidal ratio of 5% or lower (almost no effect)); g: rapeseed, effect on crop grade (rapeseed [7]): 2 (Herbicidal ratio of 20% or higher and lower than 40%); G: Setaria viridis, herbicidal effect grade (Setaria viridis): 1 (Herbicidal ratio of 5% or higher and lower than 20%)
CON=C(C)CC1CC(OC(=O)N2CCOCC2)=C(c2c(C)cc(-c3ccc(F)cc3)cc2C)C1=O (mixture of isomers) [6-059]	5 (Herbicidal ratio of 90% or more (almost completely withered))	4 (Herbicidal ratio of 70% or higher and lower than 90%)	4 (Herbicidal ratio of 70% or higher and lower than 90%)	0 (Herbicidal ratio of 5% or lower (almost no effect))	2 (Herbicidal ratio of 20% or higher and lower than 40%)	5 (Herbicidal ratio of 90% or more (almost completely withered))	5 (Herbicidal ratio of 90% or more (almost completely withered))	5 (Herbicidal ratio of 90% or more (almost completely withered))	5 (Herbicidal ratio of 90% or more (almost completely withered))	5 (Herbicidal ratio of 90% or more (almost completely withered))	5 (Herbicidal ratio of 90% or more (almost completely withered))	5 (Herbicidal ratio of 90% or more (almost completely withered))	5 (Herbicidal ratio of 90% or more (almost completely withered))	4 (Herbicidal ratio of 70% or higher and lower than 90%)	
CON=C(C)CC1CC(O)=C(c2c(C)cc(OC)cc2C)C1=O (stereo not drawn) [6-055]	5 (Herbicidal ratio of 90% or more (almost completely withered))	0 (Herbicidal ratio of 5% or lower (almost no effect))	0 (Herbicidal ratio of 5% or lower (almost no effect))	0 (Herbicidal ratio of 5% or lower (almost no effect))	5 (Herbicidal ratio of 90% or more (almost completely withered))	5 (Herbicidal ratio of 90% or more (almost completely withered))	5 (Herbicidal ratio of 90% or more (almost completely withered))	5 (Herbicidal ratio of 90% or more (almost completely withered))	0 (Herbicidal ratio of 5% or lower (almost no effect))	4 (Herbicidal ratio of 70% or higher and lower than 90%)	5 (Herbicidal ratio of 90% or more (almost completely withered))	5 (Herbicidal ratio of 90% or more (almost completely withered))	1 (Herbicidal ratio of 5% or higher and lower than 20%)	2 (Herbicidal ratio of 20% or higher and lower than 40%)	
CON=C(C)CC1CC(OC(=O)SC(C)(C)C)=C(c2c(C)cc(-c3ccc(Cl)cc3)cc2C)C1=O (stereo not drawn) [6-082]	5 (Herbicidal ratio of 90% or more (almost completely withered))	4 (Herbicidal ratio of 70% or higher and lower than 90%)	5 (Herbicidal ratio of 90% or more (almost completely withered))	0 (Herbicidal ratio of 5% or lower (almost no effect))	5 (Herbicidal ratio of 90% or more (almost completely withered))	5 (Herbicidal ratio of 90% or more (almost completely withered))	5 (Herbicidal ratio of 90% or more (almost completely withered))	5 (Herbicidal ratio of 90% or more (almost completely withered))	1 (Herbicidal ratio of 5% or higher and lower than 20%)	4 (Herbicidal ratio of 70% or higher and lower than 90%)	4 (Herbicidal ratio of 70% or higher and lower than 90%)	5 (Herbicidal ratio of 90% or more (almost completely withered))	4 (Herbicidal ratio of 70% or higher and lower than 90%)	3 (Herbicidal ratio of 40% or higher and lower than 70%)	
CON=C(C)CC1CC(O)=C(c2c(OC)cc(C)cc2OC)C1=O (stereo not drawn) [6-103]		0 (Herbicidal ratio of 5% or lower (almost no effect))	0 (Herbicidal ratio of 5% or lower (almost no effect))			5 (Herbicidal ratio of 90% or more (almost completely withered))		5 (Herbicidal ratio of 90% or more (almost completely withered))	0 (Herbicidal ratio of 5% or lower (almost no effect))	2 (Herbicidal ratio of 20% or higher and lower than 40%)	4 (Herbicidal ratio of 70% or higher and lower than 90%)	5 (Herbicidal ratio of 90% or more (almost completely withered))	0 (Herbicidal ratio of 5% or lower (almost no effect))	0 (Herbicidal ratio of 5% or lower (almost no effect))	Herbicidal effect grade, L: Apera spica-venti (Apera spica-venti [1]): 5 (Herbicidal ratio of 90% or more (almost completely withered)); Effect on crop grade, g: rapeseed (rapeseed [4]): 0 (Herbicidal ratio of 5% or lower (almost no effect)); Herbicidal effect grade, H: Echinochloa crus-galli var. crus-galli [5]: 5 (Herbicidal ratio of 90% or more (almost completely withered)); Herbicidal effect grade, F: Digitaria ciliaris (Digitaria ciliaris): 5 (Herbicidal ratio of 90% or more (almost completely withered))
